From patent US20230069963A1, “PYRAZOLO[1,5-A]PYRIMIDINE MACROCYCLIC COMPOUND” (priority 2018, published 2023) come the findings set out here.

Structures can show the parent of a compound that is named as a salt.

This experiment has as its system RSV ATCC VR-1540 (A2). As to the kind of experiment: microbe, parasite or virus in culture. The format is cell-based. As to conditions: human respiratory syncytial virus, HEp-2, 96 h; Hep2 cells, incubated for 4 days, CPE detected with XTT assay (absorbance 450 nm); read-out: EC50 (nmol/L) against RSV A2 strain. (In general: Tetrazolium dyes change colour on reduction, which living cells bring about.)
Take `CN1CCOc2ccc(Cl)cc2C(=O)N2CCCC[C@H]2c2cc3nc(N4CC(F)C4)cc(n3n2)N(C)CC1` [Example 162, (18aS)-2-chloro-13-(3-fluoroazetidin-1-yl)-8,11-dimethyl-6,7,8,9,10,11,19,20,21,22-decahydro-18aH,24H-18,15-(metheno)pyrido[2,1-l]pyrimido[6,1-h][1,4,7,9,10,13]benzoxapentaazacyclohexadecin-24-one]: the EC50 was 4.51 nmol/L.

For the compound `CN1CCOc2ccc(Cl)cc2C(=O)N2CCCC[C@H]2c2cc3nc(N4CC(CN)C4)cc(n3n2)N(C)CC1` [Example 163, (18aS)-13-[3-(aminomethyl)azetidin-1-yl]-2-chloro-8,11-dimethyl-6,7,8,9,10,11,19,20,21,22-decahydro-18aH,24H-18,15-(metheno)pyrido[2,1-l]pyrimido[6,1-h][1,4,7,9,10,13]benzoxapentaazacyclohexadecin-24-one], the EC50 is roughly 10 nmol/L. The same measure for `Cc1ccc2c(c1)C(=O)N1CCCC[C@H]1c1cc3nc(N4CCC4)cc(n3n1)N(C)CCN(C)CCO2` [Example 173, (18aS)-13-(azetidin-1-yl)-2,8,11-trimethyl-6,7,8,9,10,11,19,20,21,22-decahydro-18aH,24H-18,15-(metheno)pyrido[2,1-l]pyrimido[6,1-h][1,4,7,9,10,13]benzoxapentaazacyclohexadecin-24-one]: 1.3 nmol/L; for `Cc1ccc2c(c1)C(=O)N1CCCC[C@H]1c1cc3nc(N4CCC4)cc(n3n1)N(C)CCN(S(N)(=O)=O)CCO2` [Example 178, (18aS)-13-(azetidin-1-yl)-2,11-dimethyl-24-oxo-6,7,10,11,19,20,21,22-octahydro-8aH,24H-18,15-(metheno)pyrido[2,1-l]pyrimido[6,1-h][1,4,7,9,10,13]benzoxapentaazacyclohexadecine-8(9H)-sulfonamide]: 4.48 nmol/L. On to `Cc1ccc2c(c1)C(=O)N1CCCC[C@H]1c1cc3nc(N4CC(O)C4)cc(n3n1)N(C)CCN(S(C)(=O)=O)CCO2` [Example 179, (18aS)-13-(3-hydroxyazetidin-1-yl)-8-(methanesulfonyl)-2,11-dimethyl-6,7,8,9,10,11,19,20,21,22-decahydro-18aH,24H-18,15-(metheno)pyrido[2,1-l]pyrimido[6,1-h][1,4,7,9,10,13]benzoxapentaazacyclohexadecin-24-one], for which the EC50 was found to be 7.33 nmol/L. The same measure for `Cc1ccc2c(c1)C(=O)N1CCCC[C@H]1c1cc3nc(N4CC(N)C4)cc(n3n1)N(C)CCN(S(C)(=O)=O)CCO2` [Example 180, (18aS)-13-(3-aminoazetidin-1-yl)-8-(methanesulfonyl)-2,11-dimethyl-6,7,8,9,10,11,19,20,21,22-decahydro-18aH,24H-18,15-(metheno)pyrido[2,1-l]pyrimido[6,1-h][1,4,7,9,10,13]benzoxapentaazacyclohexadecin-24-one]: 33 nmol/L; for `Cc1ccc2c(c1)C(=O)N1CCCC[C@H]1c1cc3nc(NCCN)cc(n3n1)N(C)CCN(S(C)(=O)=O)CCO2` [Example 182, (18aS)-13-[(2-aminoethyl)amino]-8-(methanesulfonyl)-2,11-dimethyl-6,7,8,9,10,11,19,20,21,22-decahydro-18aH,24H-18,15-(metheno)pyrido[2,1-l]pyrimido[6,1-h][1,4,7,9,10,13]benzoxapentaazacyclohexadecin-24-one hydrochloride]: 14.2 nmol/L. As to `CCC1c2cc3nc(N4CC[C@H](N)C4)cc(n3n2)N(C)CCN(S(C)(=O)=O)CCOc2ccc(C)cc2C(=O)N1C` (stereo partly drawn) [Example 195, (18S)-3-[(3S)-3-aminopyrrolidin-1-yl]-18-ethyl-8-(methanesulfonyl)-5,14,17-trimethyl-5,6,7,8,9,10,17,18-octahydro-16H-19,1-(metheno)pyrimido[6,1-h][1,4,7,9,11,13]benzoxapentaazacyclohexadecin-16-one], the EC50 is 20.5 nmol/L. Turning to `CN1CCNCCOc2ccc(F)cc2C(=O)N2CCCC[C@H]2c2cc3nc(N4CCC4)c(F)c1n3n2` [Example 198, (18aS)-13-(azetidin-1-yl)-2,12-difluoro-11-methyl-6,7,8,9,10,11,19,20,21,22-decahydro-18aH,24H-18,15-(metheno)pyrido[2,1-l]pyrimido[6,1-h][1,4,7,9,10,13]benzoxapentaazacyclohexadecin-24-one], the EC50 was determined as 2.82 nmol/L. In the case of `CC[C@H]1c2cc3nc(NCC(C)(C)N)cc(n3n2)N(C)CCCCOc2ccc(C)cc2C(=O)N1C` [Example 208, (17S)-3-[(2-amino-2-methylpropyl)amino]-17-ethyl-5,13,16-trimethyl-6,7,8,9,16,17-hexahydro-5H,15H-18,1-(metheno)pyrimido[6,1-g][1,6,8,9,12]benzoxatetraazacyclopentadecin-15-one hydrochloride], the EC50 stood at 4.33 nmol/L. With `CCC1c2cc3nc(N4CC[C@H](N)C4)cc(n3n2)N(C)CCCCOc2ccccc2C(=O)N1C` (stereo partly drawn) [Example 213, (17S)-3-[(3S)-3-aminopyrrolidin-1-yl]-17-ethyl-5,16-dimethyl-6,7,8,9,16,17-hexahydro-5H,15H-18,1-(metheno)pyrimido[6,1-g][1,6,8,9,12]benzoxatetraazacyclopentadecin-S5-one] the figure was 7.81 nmol/L; with `CC[C@H]1c2cc3nc(N4CC[C@H](N)C4)cc(n3n2)N(C)CCCCN(C)c2ccc(C)cc2C(=O)N1C` [Example 218, (17S)-3-[(3S)-3-aminopyrrolidin-1-yl]-17-ethyl-5,10,13,16-tetramethyl-5,6,7,8,9,10,16,17-octahydro-15H-18,1-(metheno)pyrimido[6,1-g][1,6,8,9,12]benzopentaazacyclopentadecin-15-one], 9.8 nmol/L; with `CC[C@H]1c2cc3nc(OC)c(C)c(n3n2)N(C)CCCCNc2ccc(C)cc2C(=O)N1C` [Example 222a, (17S)-17-ethyl-3-methoxy-4,5,13,16-tetramethyl-5,6,7,8,9,10,16,17-octahydro-15H-18,1-(metheno)pyrimido[6,1-g][1,6,8,9,12]benzopentaazacyclopentadecin-15-one], 7.17 nmol/L. For the compound `CC[C@H]1c2cc3nc(N4CC[C@H](N)C4)c(C)c(n3n2)N(C)CCCCNc2ccc(C)cc2C(=O)N1C` [Example 223, (17S)-3-[(3S)-3-aminopyrrolidin-1-yl]-17-ethyl-4,5,13,16-tetramethyl-5,6,7,8,9,10,16,17-octahydro-15H-18,1-(metheno)pyrimido[6,1-g][1,6,8,9,12]benzopentaazacyclopentadecin-15-one], the EC50 stood at 1.34 nmol/L. `CC[C@H]1c2cc3nc(N4CC[C@H](N)C4)c(C)c(n3n2)N(C)CCCCCOc2ccccc2C(=O)N1C` [Example 233, (18S)-3-[(3S)-3-aminopyrrolidin-1-yl]-18-ethyl-4,5,17-trimethyl-5,6,7,8,9,10,17,18-octahydro-16H-19,1-(metheno)pyrimido[6,1-h][1,7,9,10,13]benzoxatetraazacyclohexadecin-16-one]: the EC50 is 39.5 nmol/L. As to `CC[C@H]1c2cc3nc(NCC(C)(C)N)c(C)c(n3n2)N(C)CCCCCOc2ccccc2C(=O)N1C` [Example 234, (18S)-3-[(2-amino-2-methylpropyl)amino]-18-ethyl-4,5,17-trimethyl-5,6,7,8,9,10,17,18-octahydro-16H-19,1-(metheno)pyrimido[6,1-h][1,7,9,10,13]benzoxatetraazacyclohexadecin-16-one], the EC50 was 6.77 nmol/L. Consider `CC[C@H]1c2cc3nc(N4CC[C@H](N)C4)cc(n3n2)N(C)CCCOc2ccc(C)cc2C(=O)N1C` [Example 238, (16S)-3-[(3S)-3-aminopyrrolidin-1-yl]-16-ethyl-5,12,15-trimethyl-5,6,7,8,15,16-hexahydro-14H-17,1-(metheno)pyrimido[6,1-f][1,5,7,8,11]benzoxatetraazacyclotetradecin-14-one], for which the EC50 stood at 28 nmol/L. On to `Cc1ccc2c(c1)C(=O)N1CCCC[C@H]1c1cc3nc(NCCN)cc(n3n1)N(C)CCCCO2` [Example 245, (23aS)-18-[(2-aminoethyl)amino]-8,16-dimethyl-1,3,4,13,14,15,16,23a-octahydro-2H,6H,12H-23,20-(metheno)pyrido[2,1-k]pyrimido[6,1-g][1,6,8,9,12]benzoxatetraazacyclopentadecin-6-one hydrochloride], for which the EC50 is 4.71 nmol/L. For `CN1CCCCOc2cccc(F)c2C(=O)N2CCCCC2c2cc3nc(N4CCC(N)C4)cc1n3n2` [Example 249, (23aS)-18-[(3S)-3-aminopyrrolidin-1-yl]-7-fluoro-16-methyl-1,3,4,13,14,15,16,23a-octahydro-2H,6H,12H-23,20-(metheno)pyrido[2,1-k]pyrimido[6,1-g][1,6,8,9,12]benzoxatectraazacyclopentadecin-6-one], the EC50 was 2.7 nmol/L. With `CN1CCCCOc2ccc(Cl)cc2C(=O)N2CCCCC2c2cc3nc(N4CC[C@H](N)C4)cc1n3n2` (stereo partly drawn) [Example 254, (23aS)-18-[(3S)-3-aminopyrrolidin-1-yl]-8-chloro-16-methyl-1,3,4,13,14,15,16,23a-octahydro-2H,6H,12H-23,20-(metheno)pyrido[2,1-k]pyrimido[6,1-g][1,6,8,9,12]benzoxatetraazacyclopentadecin-6-one] the figure was 3.28 nmol/L. Take `CN1CCCCCc2ccc(F)cc2C(=O)N2CCCC[C@H]2c2cc3nc(N4CCC4)cc1n3n2` [Example 279, (23aS)-18-(azetidin-1-yl)-8-fluoro-16-methyl-1,3,4,11,12,13,14,15,16,23a-decahydro-2H,6H-23,20-(metheno)pyrido[1,2-b]pyrimido[1,6-f][2,5,6,8]benzotetraazacyclopentadecin-6-one]: the EC50 is 14.5 nmol/L. Regarding `Cc1c(N2CCC(N)C2)nc2cc3nn2c1NCCCCOc1ccc(Cl)cc1C(=O)N1CCCCC31` [Example 283, (23aS)-18-[(3S)-3-aminopyrrolidin-1-yl]-8-chloro-17-methyl-1,3,4,13,14,15,16,23a-octahydro-2H,6H,12H-23,20-(metheno)pyrido[2,1-k]pyrimido[6,1-g][1,6,8,9,12]benzoxatetraazacyclopentadecin-6-one], the EC50 came to 6.28 nmol/L.
